Here are results for 2 compounds from patent publication US11344507B2, “Topical compositions containing low molecular weight chitosan derivatives” (ALUMEND, LLC, priority 2019, dated 2022).

Structures are written as SMILES.

The subject of data set [1] is IL-1α secretion by three-dimensional human epidermal equivalents (EPI-200). Conditions: 24 h. Here is the method:
Test materials (30 μl) were topically applied onto three-dimensional human epidermal equivalents (EPI-200 from MatTek, Ashland, Mass.), n=3 tissues per treatment group.

Data set [2] has the same test system.
The test system of data set [3] is three-dimensional human epidermal equivalents (EPI-200). Nature of the data set: In vitro Skin Irritation Test, SDS-induced irritation: MTT tissue viability. Conditions: for Mean of viability (%): MTT after 42 hr post-exposure.

As for `CC1=C(/C=C/C(C)=C/C=C/C(C)=C/CO)C(C)(C)CCC1` [Retinol, retinol], the “IL-1α (pg/mL) = Average IL1α (pg/mL) treated tissue minus Average IL1α (pg/mL) negative control” value in data set [1] is listed as 98.301 pg/mL.
Turning to `CCCCCCCCCCCCOS(=O)(=O)[O-].[Na+]` [SDS, sodium dodecyl sulfate], the “irritant classification by IL-1α results” value in data set [2] is given as “irritant”. The “Mean of viability (%)” value in data set [3] (0.2% SDS, alone or applied after dried 1% OsC) is recorded as 74.75%; in data set [3] (0.4% SDS, alone or applied after dried 1% OsC), 73.04%; in data set [3] (0.6% SDS, alone or applied after dried 1% OsC), 19.21%; in data set [3] (test agent alone (OsC 1%; PC = 5% SDS)) it was 3.12%. For the same compound, in data set [3] (0.6% SDS, alone or combined with OsC), the “irritant classification by MTT assay (cut-off 50% viability)” value is “irritant”.
